The values that follow are results of earlier work, collected in US11027027B2, “Pyridazinoindole compounds and methods for PET imaging” (Vanderbilt University, priority 2015, dated 2021).

This series addresses central benzodiazepine receptor (CBR). To be noted: value used to calculate Ki; read-out: Kd for flunitrazepam; cited from earlier work.

Structures are written as SMILES.

In general, Kd refers to the free concentration of one partner at which half of the binding sites on the other are occupied at equilibrium, for simple one-to-one binding. Consider `CN1C(=O)CN=C(c2ccccc2F)c2cc([N+](=O)[O-])ccc21` [flunitrazepam], for which the Kd is 1.1 nM.
